Read-outs that look alike come from different tables or passages of the source.
Experiments:
[1] = test system: Ts65Dn and control mice; experiment: Open field; format: in vivo; details: mice of either genotype; for horizontal or vertical activity in open field: 20 mg/kg p.o. chronic; for anxiogenic effect (activity in the center of the open field): chronic administration
Procedure: (§1) For mice studies, active pharmaceutical compounds of present invention were formulated in chocolate-milk (Puleva, Barcelona, Spain). Active pharmaceutical compounds of present invention or vehicle were administered p.o. at a dose of 20 mg/kg for six weeks. Their administration was prolonged during the 30 days of the behavioral assessment.
Exploratory behavior and anxiety were assessed using a square-shaped open field (55 cm×55 cm, surrounded by a 25-cm-tall fence), divided into 25 equal squares. The animals were placed in the center of the field, and the number of vertical (rearing) activities and horizontal crossings (from square to square, subdivided into center vs. peripheral crossings) were scored in a single 5-min trial.

[2] = test system: Ts65Dn and control mice; experiment: Sensorimotor test battery; format: in vivo; details: 20 mg/kg p.o. chronic; for Auditory startle / Equilibrium aluminium bar / Equilibrium wooden bar / Grip strength / Prehensile reflex / Righting reflex / Traction capacity / Vision: mean score; for effect on sensorimotor abilities: Ts65Dn or control mice
Procedure: as §1
A battery of sensorimotor tests was performed following the procedure described by Rueda N et al. [Neurosci Leu (2008) 433(1):22-27]. In the visual placing reflex test, cerebellar and vestibular functions were evaluated. […] The response of forepaw extension was scored on a 0-4 scale [4: animal extends the forepaws when placed at the highest height; 3: forepaws extended before touching the surface with vibrissae; 2: forepaws extended after vibrissae touched the surface; 1: forepaws extended after the nose touched the surface; 0: no extension].
To evaluate auditory sensitivity, the startle response to a sudden auditory stimulus was measured. Mice were placed facing the wall of an unfamiliar cage and the auditory stimulus was generated by clapping together two stainless steel forceps (7 cm long). A score (0-3 points) was assigned based on the magnitude of the response: jumping more than 1 cm (3 points); jumping less than 1 cm (2 points); retracting of the ears (Preyer reflex, 1 point); or no response (0 points).
The vibrissa placing reflex was analyzed by noting the reflective reaction to touching the vibrissae with a cotton stick. In three consecutive trials, a score of 1 was assigned to animals that touched the stimulated vibrissae with an ipsilateral paw, and 0 if there was no response. Grip strength was assessed by quantifying the resistance to being separated from a lid of aluminum bars (2 mm), when dragged by the tail (0: no resistance, total loss of grip strength; 1: slight; 2: moderate; 3: active; 4: extremely active resistance, normal grip strength).
In order to evaluate equilibrium, four 20-s trials of balance were performed on an elevated (40 cm high), horizontal (50 cm long) rod. Trials 1 and 2 were performed on a flat wooden rod (9 mm wide); trials 3 and 4 were performed on a cylindrical aluminum rod (1 cm diameter). In each trial, the animals were placed in a marked central zone (10 cm) on the elevated rod. A score of 0 was given if the animal fell within 20 s, 1 if it stayed within the central zone for >20 s, 2 if it left the central zone, and 3 if it reached one of the ends of the bar.
Prehensile reflex (three 5-s trials) was measured as the ability of the animal to remain suspended by the forepaws by grasping an elevated horizontal wire (2 mm in diameter). The maximum possible score of 3 was achieved when the animal remained suspended by the forepaws in all three trials (one point per trial). Traction capacity was scored at the same time by assessing the number of hind limbs that the animal raised to reach the wire (0: none; 1: one limb; 2: two limbs).

[3] = biological target: human GABA A α1β2/3γ2 (Homo sapiens, UniProt P14867+P18507); experiment: [3H]flumazenil competition binding, HEK293 cells expressing human α1β2/3γ2; design: expressed in transfected cells; host or cells: HEK293; details: for Ki: [3H]flumazenil competition, human α1β2/3γ2, read-out: hKi α1; for hKi α1/hKi α5: binding selectivity ratio
[4] = biological target: human GABA A α2β3γ2 (Homo sapiens, UniProt P18507+P47869); experiment: Two-microelectrode voltage clamp, modulation of GABA EC10 response in Xenopus oocytes, α2β3γ2; format: cell-based; design: expressed in transfected cells; host or cells: Xenopus laevis oocytes; details: % change of EC10 GABA response at 3 μM or at 30×Ki if Ki below 0.1 μM
Procedure: (§2) Table 2b. […] Effect at human GABA A α5 receptors: % change of a submaximal (EC10) response to GABA determined at 30×Ki value from the flumazenil binding assay.
(§3) Subtype-selective effects were determined on cloned receptors expressed in Xenopus oocytes. Human recombinant GABA A receptors were expressed in Xenopus laevis oocytes. Current responses were evoked in two-microelectrode voltage-clamp condition by applying an EC10 of GABA before and during the co-application of the test compound. Response amplitudes in the presence of the test compound are expressed as percentage of the amplitudes before drug addition.

[5] = biological target: human GABA A α3β3γ2 (Homo sapiens, UniProt P18507+P34903); experiment: Two-microelectrode voltage clamp, modulation of GABA EC10 response in Xenopus oocytes, α3β3γ2; format: cell-based; design: expressed in transfected cells; host or cells: Xenopus laevis oocytes; details: % change of EC10 GABA response at 3 μM or at 30×Ki if Ki below 0.1 μM
Procedure: as §2, §3

[6] = test system: Ts65Dn and control mice; experiment: Motor coordination: rotarod; format: in vivo; details: mice of either genotype, 20 mg/kg p.o. chronic
Procedure: as §1
Motor coordination was evaluated using a rotarod device (Ugo Basile; Comerio, Italy), which consists of a 37-cm-long, 3-cm diameter plastic rod that rotates at different speeds. In a single session, 4 trials with a maximum duration of 60 s each were performed. In the first three tests, the rod was rotated at constant speeds of 5, 25 and 50 rpm, respectively. The last trial consisted of an acceleration cycle, in which the rod rotated progressively faster, and the animal had to adapt to the growing demands of the test. The length of time that each animal stayed on the rotarod was recorded.

[7] = biological target: human GABA A α5β3γ2 (Homo sapiens, UniProt P18507+P31644); experiment: [3H]flumazenil competition binding, HEK293 cells expressing human α5β3γ2; design: expressed in transfected cells; host or cells: HEK293

| SMILES | horizontal or vertical activity in open field [1] | anxiogenic effect (activity in the center of the open field) [1] | Latency arrival coat hanging ([2]; Ts65Dn mice) | Latency to fall aluminium bar ([2]; Ts65Dn mice) | Latency to fall wooden bar ([2]; Ts65Dn mice) | Number of crossings coat hanging ([2]; Ts65Dn mice) | Auditory startle ([2]; Ts65Dn mice) | Equilibrium aluminium bar ([2]; Ts65Dn mice) | Equilibrium wooden bar ([2]; Ts65Dn mice) | Grip strength ([2]; Ts65Dn mice) | Prehensile reflex ([2]; Ts65Dn mice) | Righting reflex ([2]; Ts65Dn mice) | Traction capacity ([2]; Ts65Dn mice) | Vision ([2]; Ts65Dn mice) | effect on sensorimotor abilities [2] | Latency arrival coat hanging ([2]; control mice) | Latency to fall aluminium bar ([2]; control mice) | Latency to fall wooden bar ([2]; control mice) | Number of crossings coat hanging ([2]; control mice) | Auditory startle ([2]; control mice) | also measured |
| --- | --- | --- | --- | --- | --- | --- | --- | --- | --- | --- | --- | --- | --- | --- | --- | --- | --- | --- | --- | --- | --- |
| FC(F)c1ncn2c1Cn1ncnc1-c1cc(Br)ccc1-2 [Compound 8581, 3-Bromo-10-difluoromethyl-9H-imidazo[1,5-a][1,2,4]triazolo[1,5-d][1,4]benzodiazepine] | did not significantly affect | did not produce an anxiogenic effect | 35.44 | 12.11 | 17.77 | 3.33 | 1.33 | 1.00 | 3.55 | 2.00 | 2.67 | 3.00 | 1.67 | 7.67 | did not modify any of the sensorimotor abilities tested | 46.45 | 14.73 | 20.00 | 2.64 | 1.00 | Equilibrium aluminium bar ([2]; control mice): 1.36; Equilibrium wooden bar ([2]; control mice): 2.8; Grip strength ([2]; control mice): 1.55; Prehensile reflex ([2]; control mice): 2.45; Righting reflex ([2]; control mice): 3.00; Traction capacity ([2]; control mice): 1.82; Vision ([2]; control mice): 7.64; Ki [3]: 174 nM; hKi α1/hKi α5 [3]: 38; Efficacy GABA A α2β3γ2 [4]: −11%; Efficacy GABA A α3β3γ2 [5]: −1%; motor coordination in the rotarod [6]: not modified; Ki [7]: 4.6 nM |
| Cc1onc(-c2ccc(F)cc2)c1COc1ccc(C(=O)N2CCS(=O)(=O)CC2)cn1 [Compound R1, (1,1-Dioxo-1,6-thiomorpholin-4-yl)-{6-[3-(4-fluoro-phenyl)-5-methyl-isoxazol-4-ylmethoxy]-pyridin-3-yl}-methanone] | did not significantly affect | did not produce an anxiogenic effect | 37.37 | 13.71 | 20.00 | 3.19 | 1.31 | 1.13 | 3.19 | 1.75 | 2.75 | 3.00 | 2.50 | 9.19 | did not modify any of the sensorimotor abilities tested | 30.93 | 11.16 | 20.00 | 2.73 | 1.00 | Equilibrium aluminium bar ([2]; control mice): 0.80; Equilibrium wooden bar ([2]; control mice): 2.53; Grip strength ([2]; control mice): 2.2; Prehensile reflex ([2]; control mice): 2.53; Righting reflex ([2]; control mice): 3.00; Traction capacity ([2]; control mice): 1.80; Vision ([2]; control mice): 8.40; Ki [3]: 985 nM; hKi α1/hKi α5 [3]: 209; Efficacy GABA A α2β3γ2 [4]: −6%; Efficacy GABA A α3β3γ2 [5]: −2%; motor coordination in the rotarod [6]: not modified; Ki ([7]; [3H]flumazenil competition, human α5β3γ2, read-out: hKi α5): 4.7 nM |
